From patent US9120789B2, “1-(5-tert-butyl-2-phenyl-2H-pyrazol-3-yl)-3-[2-fluoro-4-(1-methyl-2-oxo-2,3-dihydro-1H-imidazo[4,5-b]pyridin-7-yloxy)-phenyl]-urea and related compounds and their use in therapy” (CANCER RESEARCH TECHNOLOGY LIMITED, priority 2010, dated 2015)

How the values were obtained:
B-RAF = B-RAF (Homo sapiens, UniProt P15056); test: Assay A - DELFIA kinase assay; assay type: biochemical; details: 100 μM ATP; mean of usually three assays; read-out: Assay A BRAF IC50
Experimental: Biological Methods—Assay A—DELFIA Kinase Assay
Compounds were assessed by a kinase assay performed according to the following protocol.
The following reagents were prepared:
DELFIA Kinase Buffer (DKB):
DKB1 (DKB with B-RAF and MEK Protein):
Combine 4950 μL of DKB and 50 μL of 2.5 mg/mL GST-MEK stock (to give 1 mg of MEK per 40 μL). Then add 22.5 μL of B-RAF to give ˜0.2 μL of B-RAF per 40 μL.
DKB2 (DKB with MEK Protein):
Combine 4950 μL of DKB and 50 μL of 2.5 mg/mL GST-MEK stock (to give […] of MEK per 40 μL). Use 500 μL of this for the blow out (BO) and the empty vector (EV) control.
100 mM stock, dilute to 500 μM to give 100 μM final concentration in assay.
Inhibitors (Test Compounds):
Phospho-MEK1/2 CST #9121S diluted 1:1000 in DELFIA assay buffer (AB). Pre-incubate antibody in the AB for 30 minutes at room temperature prior to use.
Anti-rabbit-Eur labelled secondary Perkin Elmer #AD0105 diluted 1:1000 in DELFIA assay buffer (AB). Pre-incubate antibody in the AB for 30 minutes at room temperature prior to use. (Primary and secondary antibodies were incubated together.)
DELFIA assay buffer Perkin Elmer #4002-0010.
DELFIA enhancement solution Perkin Elmer #4001-0010.
96 well glutathione-coated black plate Perbio #15340.
1. Preblock wells with 5% milk in TBS for 1 hour.
2. Wash wells 3× with 200 μL TBS.
3. Plate out 40 μL of DKB1 for all inhibitors (test compounds), DMSO control, and optionally other control compounds.
4. Plate out 40 μL of DKB2 for BO and EV wells.
5. Add inhibitors (test compounds) at 0.5 μL per well according to desired plate layout.
6. Add 0.5 μL DMSO to vehicle control wells.
7. Add 2 μL of B-RAF to BO and EV wells.
8. Pre-incubate with inhibitors (test compounds) for 10 minutes at room temperature with shaking.
9. Add 10 μL of 500 μM ATP stock, in DKB, to give 100 μM assay concentration.
10. Seal plates with TopSeal and incubate at room temperature with shaking for 45 minutes.
11. Wash plates 3× with 200 μL 0.1% Tween20/Water to terminate reaction.
12. Add 50 μL per well of antibody mix and incubate for 1 hour at room temperature with shaking.
13. Wash plates 3× with 200 μL 0.1% Tween20/Water.
14. Add 100 μL DELFIA enhancement solution per well, cover in foil, and incubate at room temperature for 30 minutes with shaking.
15. Read on Victor using Europium protocol.
(§1) Values for the blank (Empty Vector) are subtracted from all values. The DMSO controls are set as 100% activity and assay points (the response) are calculated as a percentage of the DMSO control. Data are plotted using Graphpad Prism software and a non-linear regression line is calculated using a variable slope sigmoidal dose-response equation: Y=Bottom+[Top−Bottom]/[1+10^((Log EC50−X)*HillSlope)] where X is the logarithm of concentration and Y is the response. The IC50 generated by this procedure is the concentration of the drug that produces a percentage control fluorescence value midway between the saturation, and zero-effect plateaus. Three independent assays are usually performed and the mean IC50 is reported. Biological Methods—Assay B—Cell Based Phosho-ERK Assay

[1] = system: pERK in mutant BRAF WM266.4 cells; test: Assay B - cell based phospho-ERK assay; details: Homo sapiens, WM 266-4, 6 hours incubation
Experimental: as §1
Compounds were assessed using a cell-based assay which was performed according to the following protocol.
Plate out 16,000 mutant BRAF WM266.4 cells/well in 99 μL medium in a 96-well plate.
1. Add 1 μL inhibitor (test compound) to the cells (total […]).
2. Incubate the cells with test compound for 6 hours at 37° C.
3. Aspirate off the solution from all of the wells.
4. Fixate the cells with 100 μL 4% formaldehyde/0.25% Triton X-100 PBS per well.
5. Incubate the plate for 1 hour at 4° C.
6. Aspirate off the fixing solution and add 300 μL TBS per well.
7. Leave the plate overnight at 4° C.
1. Wash the plate 2× with 200 μL PBS per well.
2. Block with 100 μL 5% dried milk in TBS.
3. Incubate the plate for 20 minutes at 37° C.
4. Wash the plate 2× with 0.1% tween/H2O.
5. Add 50 μL of 3 μg/mL primary antibody pERK (Sigma M8159), diluted in 5% milk powder/TBS, to each well.
6. Incubate the plate for 2 hours at 37° C.
7. Wash the plate 3× with 0.1% tween/H2O.
8. Add 50 μL of 0.45 μg/mL secondary Europium-labelled anti-mouse antibody (Perkin Elmer) to each well.
9. Incubate the plate for 1 hour at 37° C.
10. Wash the plate 3× with 0.1% tween/H2O.
11. Add 100 μL enhancement solution (Perkin Elmer) to each well.
12. Leave the plate for approximately 10 minutes at room temperature before gently shaking the plate.
13. Read Europium Time Resolved Fluorescence in Victor2.
14. Wash the plate 2× with 0.1% tween/H2O.
15. Measure the protein concentration with BCA (Sigma) by adding 200 μL of solution per well.
16. Incubate the plate for 30 minutes at 37° C.
17. Read absorbance levels at 570 nm in a plate reader.
Note that Europium counts are normalised for protein levels by dividing counts by absorbance.
as §1, with “blank (no cells)” for “blank (Empty Vector)”, “the response).” for “the response.”, “Methods—Assay C—SRB Cell Proliferation” for “Methods—Assay B—Cell Based Phosho-ERK”, “Assay (SRB GI50)” for “Assay”

[2] = system: WM266.4 melanoma cell line (mutant BRAF); test: Assay C - SRB cell proliferation assay, WM266.4; assay type: cell-based; details: Homo sapiens, WM 266-4, 120 h; WM266.4, 5 days growth
Experimental: as §1, with “blank (no cells)” for “blank (Empty Vector)”, “the response).” for “the response.”, “Methods—Assay C—SRB Cell Proliferation” for “Methods—Assay B—Cell Based Phosho-ERK”, “Assay (SRB GI50)” for “Assay”
Cell lines (e.g., WM266.4 and A375M melanoma cell lines; SW620 colorectal carcinoma cell line) are routinely cultured in DMEM or RPMI1640 supplemented with 10% foetal bovine serum, at 37° C., in 10% CO2 water saturated atmosphere. Cultures are maintained in exponential growth phase by sub-culturing before having become confluent (3-5 day intervals). Single cell suspensions are prepared by harvesting an 80 cm^2 tissue culture flask with 5 mL commercial trypsin EDTA. After 5 minutes, the detached cells are mixed with 5 mL fully complemented culture medium and centrifugally pelleted (1000 rpm for 7 minutes). After aspirating the supernatant, the cell pellet is re-suspended in 10 mL fresh medium and the cells fully disaggregated by drawing the whole volume up/down 5 times through a 19-gauge needle. The concentration of the cells is determined using a haemocytometer ( 1/10 dilution). A suitable volume to give at least a 2-fold excess for the number of tests being conducted, typically 100-200 mL, is prepared by diluting the cell suspension to 10,000-40,000/mL, and 100 μL/well dispensed into 96 well plates using a programmable 8-channel peristaltic pump, giving 1000-4000 cells/well, leaving column 12 blank. The plates are returned to the incubator for 24 hours to allow the cells to re-attach.
The compounds being tested are prepared at 10 mM in DMSO. Aliquots (24 μL) are diluted into 1.2 mL culture medium giving 200 μM, and 10 serial dilutions of 3× performed by transferring 80 μL to 160 μL. Aliquots (100 μL) of each dilution are added to the wells, using an 8-channel pipettor, thus performing a final further 2× dilution, and giving doses ranging from 100 μM to 0.005 μM. Column 11 receives plain culture medium only. Each compound is tested in quadruplicate, each replicate being the average of four wells.
After a further 5 days growth, the plates are emptied, and the cells are fixed in 10% trichloroacteic acid for 30 minutes at 4° C. After thorough rinsing in running tap water, the plates are dried, and stained by adding 50 μL of a solution of 0.1% sulphorhodamine-B in 1% acetic acid, for 10 minutes at room temperature. The stain is poured out and the plates thoroughly rinsed under a stream of 1% acetic acid, thus removing unbound stain, and dried. The bound stain is taken into solution by addition of 100 μL Tris buffer pH 8, followed by 10 minutes on a plate-shaker (approximately 500 rpm). The absorbance at 540 nm in each well (being proportional to the number of cells present) is determined using a plate reader.
After averaging the blank values in column 12 this was subtracted from all values, and results expressed as a percentage of the untreated value (column 11). […] The GI50 generated by this procedure is the concentration of the drug that produces a percentage control A540 midway between the saturation, and zero-effect plateaus.

Chain of B-RAF (P15056 whole entry): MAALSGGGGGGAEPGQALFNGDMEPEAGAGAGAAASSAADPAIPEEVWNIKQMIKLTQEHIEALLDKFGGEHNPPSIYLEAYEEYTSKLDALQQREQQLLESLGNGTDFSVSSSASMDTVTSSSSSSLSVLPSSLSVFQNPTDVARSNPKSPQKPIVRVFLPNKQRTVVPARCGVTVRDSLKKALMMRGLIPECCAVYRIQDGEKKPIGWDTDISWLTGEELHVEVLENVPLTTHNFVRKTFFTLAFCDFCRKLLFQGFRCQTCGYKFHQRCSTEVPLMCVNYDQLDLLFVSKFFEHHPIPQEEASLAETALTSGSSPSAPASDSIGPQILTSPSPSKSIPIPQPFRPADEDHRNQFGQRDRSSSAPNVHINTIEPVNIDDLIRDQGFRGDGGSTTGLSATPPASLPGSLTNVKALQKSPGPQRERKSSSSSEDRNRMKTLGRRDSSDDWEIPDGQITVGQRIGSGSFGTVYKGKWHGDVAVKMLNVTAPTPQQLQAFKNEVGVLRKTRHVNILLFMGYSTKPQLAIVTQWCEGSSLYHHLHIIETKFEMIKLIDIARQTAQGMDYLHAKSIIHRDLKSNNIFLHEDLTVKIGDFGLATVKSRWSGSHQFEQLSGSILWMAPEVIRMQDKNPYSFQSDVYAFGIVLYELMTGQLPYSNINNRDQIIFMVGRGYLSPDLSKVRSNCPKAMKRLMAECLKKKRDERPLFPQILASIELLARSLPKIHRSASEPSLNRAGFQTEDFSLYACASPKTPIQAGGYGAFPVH

IC50 (B-RAF) | IC50 [1] | GI50 [2] | SMILES
302 nM | 60 nM | 121 nM | Cn1c(=O)[nH]c2nccc(Oc3ccc(NC(=O)Nc4cc(C(C)(C)C)nn4-c4ccc(Cl)cc4)c(F)c3)c21 [AA-03, 1-(3-Tert-butyl-1-(4-chlorophenyl)-1H-pyrazol-5-yl)-3-(2-fluoro-4-(1-N-methyl-2-oxo-2,3-dihydro-1H-imidazo[4,5-b]pyridin-7-yloxy)phenyl)urea]
197 nM | 20 nM | 57 nM | Cc1ccc(-n2nc(C(C)(C)C)cc2NC(=O)Nc2ccc(Oc3ccnc4[nH]c(=O)n(C)c34)cc2F)cc1 [AA-02, 1-(3-Tert-butyl-1-p-tolyl-1H-pyrazol-5-yl)-3-(2-fluoro-4-(1-N-methyl-2-oxo-2,3-dihydro-1H-imidazo[4,5-b]pyridin-7-yloxy)phenyl)urea]
